Experimental data: ChEMBL document CHEMBL3046837, “Synthesis of some novel amino and thiotetrazole purine derivatives and investigation of their antimicrobial activity and DNA interactions” (Med Chem Res, 2013)
Calls of active or inactive are those of the source. No cut-off for these calls is given here.

Tests used:
Candida albicans = assay: Antifungal activity against Candida albicans ATCC 10231 after 72 hr by disk diffusion method; type: functional, organism-based
Escherichia coli [1] = assay: Covalent binding to Escherichia coli pBR322 DNA adenine-adenine site assessed as inhibition of Hind3-mediated restriction digestion at 1250 uM by restriction endonuclease analysis
Escherichia coli [2] = assay: Antibacterial activity against Escherichia coli ATCC 35218 after 24 hr by disk diffusion method; type: functional, organism-based
Escherichia coli [3] = assay: Antibacterial activity against Escherichia coli ATCC 25922 after 24 hr by disk diffusion method; type: functional, organism-based
Escherichia coli [4] = assay: Binding affinity to Escherichia coli pBR322 DNA assessed as appearance of DNA fragments at high concentration after 24 hr by agarose gel electrophoresis
Escherichia coli [5] = assay: Covalent binding to Escherichia coli pBR322 DNA assessed as disappearance of form 2 DNA at high concentration after 24 hr by agarose gel electrophoresis
Staphylococcus aureus = assay: Antibacterial activity against Staphylococcus aureus ATCC 25923 after 24 hr by disk diffusion method; type: functional, organism-based
Escherichia coli [6] = assay: Covalent binding to Escherichia coli pBR322 DNA Guanine-guanine site assessed as inhibition of BamH1-mediated restriction digestion at 1250 uM by restriction endonuclease analysis
Bacillus subtilis = assay: Antibacterial activity against Bacillus subtilis […] after 24 hr by disk diffusion method; type: functional, organism-based
Candida tropicalis = assay: Antifungal activity against Candida tropicalis ATCC 13803 after 72 hr by disk diffusion method; type: functional, organism-based
Pseudomonas aeruginosa = assay: Antibacterial activity against Pseudomonas aeruginosa ATCC 27853 after 24 hr by disk diffusion method; type: functional, organism-based
Proteus vulgaris = assay: Antibacterial activity against Proteus vulgaris ATCC 8427 after 24 hr by disk diffusion method; type: functional, organism-based
Bacillus cereus = assay: Antibacterial activity against Bacillus cereus NRLL B-3008 after 24 hr by disk diffusion method; type: functional, organism-based
Enterococcus faecalis = assay: Antibacterial activity against Enterococcus faecalis […] after 24 hr by disk diffusion method; type: functional, organism-based
Escherichia coli [7] = assay: Binding affinity to Escherichia coli pBR322 DNA assessed as decrease in mobility of form 1 DNA at high concentration after 24 hr by agarose gel electrophoresis
Escherichia coli [8] = assay: Binding affinity to Escherichia coli pBR322 DNA assessed as change in mobility of form 1 DNA at low concentration after 24 hr by agarose gel electrophoresis
Escherichia coli [9] = assay: Covalent binding to Escherichia coli pBR322 DNA assessed as increase in intensity of form 1 DNA at high concentration after 24 hr by agarose gel electrophoresis
Escherichia coli [10] = assay: Covalent binding to Escherichia coli pBR322 DNA assessed as appearance of small DNA fragments at high concentration after 24 hr by agarose gel electrophoresis
Escherichia coli [11] = assay: Binding affinity to Escherichia coli pBR322 DNA assessed as change in mobility of form 2 DNA at low concentration after 24 hr by agarose gel electrophoresis
Escherichia coli [12] = assay: Covalent binding to Escherichia coli pBR322 DNA assessed as increase in mobility of form 1 DNA at high concentration after 24 hr by agarose gel electrophoresis

Structure (SMILES) | Activity (Escherichia coli [1]) | Activity (Escherichia coli [4]) | Activity (Escherichia coli [5]) | Activity (Escherichia coli [6]) | Activity (Escherichia coli [7]) | Activity (Escherichia coli [8]) | Activity (Escherichia coli [9]) | Activity (Escherichia coli [10]) | Activity (Escherichia coli [11]) | Activity (Escherichia coli [12]) | Activity (Candida albicans) | Activity (Escherichia coli [2]) | Activity (Escherichia coli [3]) | Activity (Staphylococcus aureus) | Activity (Bacillus subtilis) | Activity (Candida tropicalis) | Activity (Pseudomonas aeruginosa) | Activity (Proteus vulgaris) | Activity (Bacillus cereus) | Activity (Enterococcus faecalis)
CCOC(=O)Cn1cnc2c(Sc3nnnn3C)ncnc21 | Active | Active | Active | Active | – | – | – | – | – | – | inactive | inactive | inactive | inactive | inactive | inactive | inactive | inactive | inactive | inactive
c1nc(Nc2nnn[nH]2)c2nc[nH]c2n1 | Active | – | – | inactive | – | inactive | Active | Active | inactive | – | inactive | inactive | inactive | inactive | inactive | inactive | inactive | inactive | inactive | inactive
CC(C)n1cnc2c(Sc3nnnn3C)ncnc21 | Active | Active | – | Active | Active | – | – | – | – | – | inactive | inactive | inactive | inactive | inactive | inactive | inactive | inactive | inactive | inactive
Cn1nnnc1Sc1ncnc2[nH]cnc12 | Active | – | – | Active | Active | – | – | – | – | – | inactive | inactive | inactive | inactive | inactive | inactive | inactive | inactive | inactive | inactive
Cn1cnc2c(Nc3nnn[nH]3)ncnc21 | Active | – | – | inactive | – | inactive | Active | Active | inactive | – | inactive | inactive | inactive | inactive | inactive | inactive | inactive | inactive | inactive | inactive
Cn1nnnc1Sc1ncnc2c1ncn2C | Active | – | – | Active | – | – | – | – | – | Active | inactive | inactive | inactive | inactive | inactive | inactive | inactive | inactive | inactive | inactive
CCCn1cnc2c(Sc3nnnn3C)ncnc21 | Active | Active | – | Active | Active | – | – | – | – | – | inactive | inactive | inactive | inactive | inactive | inactive | inactive | inactive | inactive | inactive
Cn1nnnc1Sc1ncnc2c1ncn2Cc1ccccc1 | Active | Active | Active | Active | – | – | – | – | – | – | inactive | inactive | inactive | inactive | inactive | inactive | inactive | inactive | inactive | inactive

The next lines start with results.

Activity (Escherichia coli [1]) | Activity (Escherichia coli [4]) | Activity (Escherichia coli [5]) | Activity (Escherichia coli [6]) | Activity (Escherichia coli [7]) | Activity (Escherichia coli [8]) | Activity (Escherichia coli [9]) | Activity (Escherichia coli [10]) | Activity (Escherichia coli [11]) | Activity (Escherichia coli [12]) | Structure (SMILES) | Activity (Candida albicans) | Activity (Escherichia coli [2]) | Activity (Escherichia coli [3]) | Activity (Staphylococcus aureus) | Activity (Bacillus subtilis) | Activity (Candida tropicalis) | Activity (Pseudomonas aeruginosa) | Activity (Proteus vulgaris) | Activity (Bacillus cereus) | Activity (Enterococcus faecalis)
Active | Active | Active | Active | – | – | – | – | – | – | Cn1nnnc1Sc1ncnc2c1ncn2CC1CCC1 | inactive | inactive | inactive | inactive | inactive | inactive | inactive | inactive | inactive | inactive
Active | Active | – | inactive | Active | – | – | – | – | – | CCOC(=O)Cn1cnc2c(Nc3nnn[nH]3)ncnc21 | inactive | inactive | inactive | inactive | inactive | inactive | inactive | inactive | inactive | inactive
Active | – | – | inactive | – | inactive | Active | Active | inactive | – | CC(C)n1cnc2c(Nc3nnn[nH]3)ncnc21 | inactive | inactive | inactive | inactive | inactive | inactive | inactive | inactive | inactive | inactive
Active | Active | – | inactive | Active | – | – | – | – | – | c1nc(Nc2nnn[nH]2)c2ncn(CC3CCC3)c2n1 | inactive | inactive | inactive | inactive | inactive | inactive | inactive | inactive | inactive | inactive
Active | – | – | inactive | – | inactive | Active | Active | inactive | – | CCCCCCn1cnc2c(Nc3nnn[nH]3)ncnc21 | inactive | inactive | inactive | inactive | inactive | inactive | inactive | inactive | inactive | inactive
Active | – | Active | Active | – | – | – | – | – | Active | CCn1cnc2c(Sc3nnnn3C)ncnc21 | inactive | inactive | inactive | inactive | inactive | inactive | inactive | inactive | inactive | inactive
Active | – | – | inactive | Active | – | – | – | – | – | c1ccc(Cn2cnc3c(Nc4nnn[nH]4)ncnc32)cc1 | inactive | inactive | inactive | inactive | inactive | inactive | inactive | inactive | inactive | inactive
Active | – | – | inactive | – | inactive | Active | Active | inactive | – | CCn1cnc2c(Nc3nnn[nH]3)ncnc21 | inactive | inactive | inactive | inactive | inactive | inactive | inactive | inactive | inactive | inactive
